2 compounds from US9827338B2, “GRP-R agonistic 177-lutetium-labeled bombesin derivatives for diagnosis and treatment of prostate cancer” (KOREA ATOMIC ENERGY RESEARCH INSTITUTE, priority 2014, dated 2017) can be followed below.

The target in data set [1] is T1, GRP-R (Homo sapiens, UniProt P30550).
T1 construct: PC-3 cells were used as a human prostate cancer cell line; host or cells: PC-3 human prostate cancer cells
The experiment in a line: Binding of 177Lu-DOTA-gluBBN in PC-3 cells (dissociation constant). Particulars: 0.01 to 100 nM, 37° C., 2 hours. As to the method:
(§1) In order to confirm in vitro targeting efficiency of DOTA-gluBBN and 177Lu-DOTA-gluBBN prepared according to Examples 1 and 2 to prostate cancer cells, PC-3 cells were used as a human prostate cancer cell line. The PC-3 cells corresponding to the human prostate cancer cell line were purchased from Korean cell line bank. The PC-3 cells were cultured in a Roswell Park Memorial Institute (RPMI) 1640 medium containing 10% fetal bovine serum (FBS) at 37° C. in 5% CO2 atmosphere.
(§2) The cells were cultured in a disposable flask for cell culture, and at the time of an experiment, the cells were cultured in a 96-well or 12-well cell culture plate according to an experimental method and then used.
In addition, 177Lu-DOTA-gluBBN (0.01 to 100 nM) prepared according to Example 2 was reacted, respectively, in the PC-3 cells. After culturing a cell plate at 37° C. for 2 hours, a reaction solution was recovered. After the cells were washed with PBS and recovered by 1N NaOH, radioactivity of each solution was measured using a gamma counter.

The nature of data set [2]: In vivo distribution in PC-3 xenografted tumor mouse model. The conditions noted are these: male, Balb/c nude, tumor (PC-3 xenograft), total radioactivity, prostate cancer cells (tumor), 1 hour after intravenous injection, 370 KBq, read-out: tumor uptake, percentage of the injected dose per unit weight. As to the method:
In order to evaluate in vivo targeting efficiency of 177Lu-DOTA-gluBBN, in vivo distribution of 177Lu-DOTA-gluBBN in a tumor mouse model obtained by xenografting PC-3 cells, which are human prostate cancer cells, into a Balb/c nude mouse (Nara biotech, Korea) was evaluated. The tumor-bearing mouse model was prepared by subcutaneously injecting the PC-3 cells (1×10^7) into a right upper end of the shoulder of a male Balb/c nude mouse (7 weeks old) and allowing tumor to grow for 3 weeks. 177Lu-DOTA-gluBBN (370 KBq) was intravenously injected into a tail vein of the tumor mouse model. After […] of injection, the experimental animal was euthanized. Then, after the blood, the liver, the kidney, the spleen, the heart, the large intestine, the small intestine, the lung, the stomach, the pancreas, and the like, in addition to the tumor were extracted, weights of the organs were measured, and radioactivity of each organ was measured. 177Lu-DOTA-gluBBN uptake in each organ was expressed as percentage of the injected dose per unit weight (% ID/g). It was confirmed that 177Lu-DOTA-gluBBN targeted prostate cancer cells at 1 hour after intravenous injection with high efficiency (12.42±2.15% ID/g).

The next data set concerns prostate cancer. The experiment in a line: Comparison of in vivo targeting efficiency to prostate cancer with comparative material 177Lu-AMBA. Particulars: versus comparative material 177Lu-AMBA. An excerpt: As a material having prostate cancer targeting mechanism similar to that of the bombesin derivatives (177Lu-DOTA-gluBBN) using the bombesin derivatives, which is the GRP-R agonist, prepared according to Example 2, 177Lu-AMBA (comparative material (J. Nucl. Med. 47(7):1144-1152 (Non-Patient Document)), see compound in FIG. 1) is a prostate cancer targeting diagnosis and treatment material of which excellent targeting efficiency is recognized, such that currently a phase 1 clinical trial was terminated.

A short description of data set [3]: In vivo physiological toxicity (body weight). More on the design: species or system mouse. Particulars: therapeutic dose, early stage of administration, measured twice a week. The protocol: (§3) In order to confirm a toxicological effect by therapeutic dose, a body weight and histological states of organs were evaluated. The body weight was measured twice a week, and after euthanizing the animal model at the timing at which evaluation was terminated, spleen and kidney tissue was collected and H&E stained.

Data set [4] is described as follows: In vivo histological toxicity (spleen and kidney, H&E). The arrangement: species or system Balb/c nude mouse. Particulars: therapeutic dose, H&E stained, versus normal and control group. As to the method: as §3
In data set [5] the target is T1, GRP-R. In words: Competitive binding with 125I-[Tyr4]-bombesin in PC-3 cells. The conditions noted are these: competition with 125I-[Tyr4]-bombesin (20,000 CPM), 37° C., 1 hour. The protocol:
as §1, §2
DOTA-gluBBN (10^−6 to 10^−12M) prepared according to Example 1 was co-cultured with 125I-[Tyr^4]-bombesin (20,000 CPM), respectively, in the PC-3 cells, which are human prostate cancer cells, to thereby carry out a competitive reaction. After culturing a cell plate at 37° C. for 1 hour, a reaction solution was recovered. After the cells were washed with PBS and recovered by 1N NaOH, radioactivity of each solution was measured using a gamma counter.

The Kd is the equilibrium constant for the complex coming apart. Higher therefore signals a looser complex. The IC50 is the concentration at which inhibition is half-maximal. A higher IC50 goes with weaker potency.

T1 sequence (P30550 whole entry): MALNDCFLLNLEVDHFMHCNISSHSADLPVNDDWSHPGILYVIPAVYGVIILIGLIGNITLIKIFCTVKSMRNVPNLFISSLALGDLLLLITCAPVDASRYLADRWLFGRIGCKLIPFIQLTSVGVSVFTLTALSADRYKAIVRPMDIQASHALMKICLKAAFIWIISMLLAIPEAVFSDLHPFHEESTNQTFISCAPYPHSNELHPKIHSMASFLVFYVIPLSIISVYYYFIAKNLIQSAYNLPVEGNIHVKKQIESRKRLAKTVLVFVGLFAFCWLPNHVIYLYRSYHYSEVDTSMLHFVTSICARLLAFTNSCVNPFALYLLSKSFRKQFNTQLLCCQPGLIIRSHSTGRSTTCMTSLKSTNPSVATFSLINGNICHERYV

`CSCC[C@H](NC(=O)[C@H](CC(C)C)NC(=O)[C@H](Cc1c[nH]cn1)NC(=O)CNC(=O)[C@@H](NC(=O)[C@H](C)NC(=O)[C@H](Cc1c[nH]c2ccccc12)NC(=O)[C@H](CCC(N)=O)NC(=O)c1ccc(NC(=O)[C@H](CCCCNC(=O)CO[C@@H]2[C@@H](O)[C@@H](O)O[C@H](CO)[C@H]2O)NC(=O)CN2CCN(CC(=O)O)CCN(CC(=O)O)CCN(CC(=O)O)CC2)cc1)C(C)C)C(N)=O` [177Lu-DOTA-gluBBN, metal not drawn] came in with a Kd on GRP-R [1] of roughly 0.63 nM. For the same compound, the tissue uptake at 1 h in data set [2] came out at 12.4 ± 2.15 %ID/g. Also, the “removal in the blood versus 177Lu-AMBA” value in the data set with prostate cancer is listed as “more rapidly removed in the blood”. The body weight change entry in data set [3] was “there was not a great change in the body weight”. Moreover, in data set [4], the “histological toxicity in spleen and kidney” value is “not observed”.

`CSCC[C@H](NC(=O)[C@H](CC(C)C)NC(=O)[C@H](Cc1c[nH]cn1)NC(=O)CNC(=O)[C@@H](NC(=O)[C@H](C)NC(=O)[C@H](Cc1c[nH]c2ccccc12)NC(=O)[C@H](CCC(N)=O)NC(=O)c1ccc(NC(=O)[C@H](CCCCNC(=O)CO[C@@H]2[C@@H](O)[C@@H](O)O[C@H](CO)[C@H]2O)NC(=O)CN2CCN(CC(=O)O)CCN(CC(=O)O)CCN(CC(=O)O)CC2)cc1)C(C)C)C(N)=O` [DOTA-gluBBN] registered an IC50 at GRP-R [5] of 4.67 nM.
